# Assays:
# [1] = tested on: patients with moderate to severe psoriasis vulgaris; experiment: Phase 2a study LP0058-1072 (NCT02888236): orismilast 30 mg BID immediate release vs placebo, 16 weeks; assay type: in vivo
# Method: In a phase 2a prospective, randomized, double-blind, placebo-controlled clinical trial (NCT02888236), patients with moderate-to-severe psoriasis were randomized to receive 30 mg twice per day orally in the form of an immediate release (IR) formulation or placebo over 16 weeks.
# The modified-release formulation was studied in a clinical trial (LP0058-1442) and administered in a total of 36 healthy volunteers: 18 in part 1, 9 in part 2, and 9 in part 3. Twenty-seven (27) healthy volunteers received a single administration of 30 mg orismilast, and 9 subjects received multiple administrations over a period of 17 days with an up-titration up to a maximum of 60 mg BID. Part 1 of this study was to evaluate the key PK parameters of the new modified-release formulation compared to the reference capsule formulation with immediate release. Orismilast was rapidly absorbed from both formulations with median tmax values of 3.00 hours post-dose for the immediate-release capsule and 2.52 hours post-dose for the modified-release tablet. The individual tmax ranges were approximately 1 to 6 hours post-dose for the immediate-release capsule and 1 to 4 hours post-dose for the modified-release tablet. […]
# [2] = tested on: chronic oxazolone-induced ear skin inflammation; settings: 10 and 30 mg/kg doses; cited from earlier work
# healthy volunteers = experiment: Clinical trial LP0058-1442 (phase 1, NCT03812198): safety and tolerability in healthy volunteers; assay type: in vivo
# Method: The safety, tolerability, and PK of orismilast MR and IR formulations were tested in a phase 1 clinical trial (NCT03812198) on healthy volunteers. Participants were randomised (3:1) to received orismilast MR or placebo (n=12). Orismilast MR was administered twice-daily for a total of 17 days. Orismilast MR was initiated at 10 mg twice-daily on days 1-2, increased to 20 mg twice-daily on days 3-4, to 30 mg twice-daily on days 5-6, to 40 mg twice-daily on days 7-8, to 50 mg twice-daily on days 9-10, and finally to 60 mg twice-daily on days 11-17.
# Twenty-seven (27) healthy volunteers received a single administration of 30 mg orismilast, and 9 subjects received multiple administrations over a period of 17 days with an up-titration up to a maximum of 60 mg BID. Part 1 of this study was to evaluate the key PK parameters of the new modified-release formulation compared to the reference capsule formulation with immediate release.
# In that study, patients received orismilast 30 mg BID immediate release or placebo for 16 weeks.
compound,measurement,setting,value
"O=C(Cc1c(Cl)c[n+]([O-])cc1Cl)c1ccc(OC(F)F)c2c1OC1(CCS(=O)(=O)CC1)O2 [orismilast, 2-(3,5-dichloro-1-oxidopyridin-1-ium-4-yl)-1-[7-(difluoromethoxy)-1′,1′-dioxospiro[1,3-benzodioxole-2,4′-thiane]-4-yl]ethanone]",efficacy in psoriasis on each predefined endpoint,[1],confirmed
same,patients withdrawn from the trial because of tolerability issues,[1],half
same,ear thickness and inflammation markers,[2],significantly reduced
same,number of adverse events of headache at the 40-mg dose level,healthy volunteers; 40-mg dose level,6
same,number of participants with nausea at a dose equal or lower to 40 mg,healthy volunteers; dose equal or lower to 40 mg,2
same,maximal tolerated dose,"healthy volunteers; modified-release tablet, healthy volunteers",40 mg BID
same,number of adverse events of headache,"healthy volunteers; subjects receiving orismilast, up-titration up to 60 mg BID",14
same,number of subjects with nausea,"healthy volunteers; up-titration up to 60 mg BID, 9 subjects",5

# — patent US12409172B2, “Dosage regimen” (UNION therapeutics A/S, priority 2023, dated 2025)
